From patent publication US7713994B2 (Wyeth LLC, priority 2005, dated 2010)
pIC50: −log10 of the molar value. Where two headings read alike, the source gives them in different places.

Assays:
[1] = tested on: HCT-116; assay: Cytotoxicity assay (SRB), HCT-116; assay type: cell-based; settings: Homo sapiens, HCT-116, 72 h, read-out: In Vitro Cellular Activity IC50 HCT116
Outline: (§1)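 Cells grown in RPMI 1640 with 5% FBS were treated with compound for three days (HCT-116, LoVo, MCF-7) or six days (BT474). Viable cell mass was quantified by sulforhodamine B staining of TCA-fixed protein and read at 540 nm.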

[2] = tested on: LoVo; assay: Cytotoxicity assay (SRB), LoVo; assay type: cell-based; settings: Homo sapiens, LoVo, 72 h, read-out: In Vitro Cellular Activity IC50 LOVO
Outline: as §1

[3] = target: T1, cyclin D1/cdk 4 enzyme (Homo sapiens, UniProt P11802); assay: CDK4 ELISA kinase assay (phospho-Rb ser 795 detection); assay type: biochemical; settings: In Vitro Enzyme Assays, 200 μM ATP, read-out: CDK4 IC50
T1 construct: made in house; host or cells: Sf9 insect cells, recombinant baculovirus
T1 sequence (P11802 whole entry, species assumed): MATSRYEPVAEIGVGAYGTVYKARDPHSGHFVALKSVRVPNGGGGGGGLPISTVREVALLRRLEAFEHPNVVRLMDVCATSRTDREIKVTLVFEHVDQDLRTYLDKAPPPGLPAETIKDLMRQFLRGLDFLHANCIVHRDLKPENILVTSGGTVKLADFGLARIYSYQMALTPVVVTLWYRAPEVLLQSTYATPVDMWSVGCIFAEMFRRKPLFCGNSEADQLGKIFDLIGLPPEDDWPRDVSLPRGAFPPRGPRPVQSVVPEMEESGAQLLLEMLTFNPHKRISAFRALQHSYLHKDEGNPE
T1 sequence (P24385 whole entry partner, species assumed): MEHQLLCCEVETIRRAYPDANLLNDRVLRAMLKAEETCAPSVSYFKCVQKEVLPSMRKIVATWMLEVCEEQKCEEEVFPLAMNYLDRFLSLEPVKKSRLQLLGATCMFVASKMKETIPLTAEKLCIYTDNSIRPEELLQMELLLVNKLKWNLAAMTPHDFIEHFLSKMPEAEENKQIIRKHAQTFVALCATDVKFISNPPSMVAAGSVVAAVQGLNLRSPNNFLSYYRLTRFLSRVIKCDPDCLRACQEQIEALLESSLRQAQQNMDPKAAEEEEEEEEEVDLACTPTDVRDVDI
Outline: (§2)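 GST-Rb C-terminal fragment coated on plates; partially purified Sf9-expressed cyclin D1/CDK4, cyclin E/CDK2 or cyclin B/CDK1 with 200 μM ATP, pH 7.5 HEPES/MgCl2 buffer, 1 h at 30 °C; screen compound final 10 μg/ml. Phospho-Rb Ser795 detected by antibody ELISA (TMB, A450); % of control, IC50 from background-subtracted inhibition curves.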

[4] = target: T2, cyclin B/CDK1 enzyme (Homo sapiens, UniProt P06493); assay: CDK1 ELISA kinase assay (phospho-Rb ser 795 detection); assay type: biochemical; settings: In Vitro Enzyme Assays, read-out: CDK1 IC50
T2 construct: purchased New England BioLabs; host or cells: Sf9 insect cells, recombinant baculovirus
T2 sequence (P06493 whole entry): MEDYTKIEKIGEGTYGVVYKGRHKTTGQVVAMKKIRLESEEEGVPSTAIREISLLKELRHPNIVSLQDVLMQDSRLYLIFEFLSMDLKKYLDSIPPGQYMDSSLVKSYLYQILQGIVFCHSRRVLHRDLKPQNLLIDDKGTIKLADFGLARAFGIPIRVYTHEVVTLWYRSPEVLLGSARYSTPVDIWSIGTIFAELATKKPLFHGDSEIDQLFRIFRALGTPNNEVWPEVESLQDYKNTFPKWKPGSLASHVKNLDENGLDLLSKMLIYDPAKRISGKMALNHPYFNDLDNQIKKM
T2 sequence (P14635 whole entry partner): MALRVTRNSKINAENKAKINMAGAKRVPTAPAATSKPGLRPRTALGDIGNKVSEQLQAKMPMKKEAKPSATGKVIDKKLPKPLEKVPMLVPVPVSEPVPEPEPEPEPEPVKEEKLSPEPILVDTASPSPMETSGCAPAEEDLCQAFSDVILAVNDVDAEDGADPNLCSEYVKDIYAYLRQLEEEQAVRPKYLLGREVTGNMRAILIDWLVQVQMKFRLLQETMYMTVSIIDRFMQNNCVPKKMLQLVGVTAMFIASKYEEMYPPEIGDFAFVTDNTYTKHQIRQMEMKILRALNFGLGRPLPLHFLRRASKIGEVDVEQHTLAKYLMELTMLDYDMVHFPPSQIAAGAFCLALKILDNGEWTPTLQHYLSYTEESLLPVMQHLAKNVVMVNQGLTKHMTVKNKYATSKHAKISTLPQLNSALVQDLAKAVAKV
Outline: as §2

[5] = tested on: MCF-7; assay: Cytotoxicity assay (SRB), MCF-7; assay type: cell-based; settings: Homo sapiens, MCF7, 72 h, read-out: In Vitro Cellular Activity IC50 MCF-7
Outline: as §1

[6] = tested on: BT474; assay: Cytotoxicity assay (SRB), BT474; assay type: cell-based; settings: Homo sapiens, BT-474, 144 h, read-out: In Vitro Cellular Activity IC50 BT474
Outline: as §1

[7] = target: T3, cyclin E/CDK2 enzyme (Homo sapiens, UniProt P24941); assay: CDK2 ELISA kinase assay (phospho-Rb ser 795 detection); assay type: biochemical
T3 construct: made in house; host or cells: Sf9 insect cells, recombinant baculovirus
Outline: as §2

[8] = In Vitro Enzyme Assays, read-out: CDK2 IC50
[9] = In Vitro Enzyme Assay, cyclin E/CDK2, read-out: CDK2 IC50

| Structure (SMILES) | pIC50 ([1]; HCT116 cells, SRB, three days) | pIC50 ([2]; LoVo cells, SRB, three days) | pIC50 [3] | pIC50 [4] | pIC50 ([5]; MCF-7 cells, SRB, three days) | melting point | pIC50 ([6]; BT474 cells, SRB, 6 days) | pIC50 [7, 8] | pIC50 [7, 9] | pIC50 [1] | pIC50 [2] | pIC50 [5] | pIC50 [6] |
| --- | --- | --- | --- | --- | --- | --- | --- | --- | --- | --- | --- | --- | --- |
| O=C1NC(=O)c2ccc(N3CCOCC3)cc2/C1=C/Nc1ccc(CN2CCCCC2)cc1 [Example 120, (4Z)-6-Morpholin-4-yl-4-({[4-(piperidin-1-ylmethyl)phenyl]amino}methylene)isoquinoline-1,3(2H,4H)-dione] | 5.37 | 5.11 | 6.04 | < 4.30 | 4.68 | 216 to 217 °C | 5.10 | – | – | – | – | – | – |
| O=C1NC(=O)c2ccc(Br)cc2C1=CNc1ccc(-c2c[nH]cn2)cc1 [Example 164, 6-Bromo-4-{[4-(1H-imidazol-4-yl)-phenylamino]-methylene}-4H-isoquinolin-1,3-dione] | – | – | 4.36 | < 4.30 | – | > 300 °C (dec.) | – | 4.96 | – | – | – | – | – |
| COc1ccc(CN/C=C2\C(=O)NC(=O)c3ccc(-c4ccoc4)cc32)cc1O [Example 92] | 5.60 | 5.49 | > 8.30 | 5.60 | 5.42 | 254 to 255 °C | 5.70 | – | – | – | – | – | – |
| O=C1NC(=O)c2ccccc2/C1=C/NCc1cccc(O)c1 [Example 63] | < 4.30 | < 4.30 | 6.11 | < 4.30 | < 4.30 | 261 to 262 °C | 4.31 | – | – | – | – | – | – |
| O=C1NC(=O)c2ccccc2/C1=C/NCc1ccc(O)cc1 [Example 61] | 4.56 | < 4.30 | < 4.30 | 4.43 | < 4.30 | 272 to 273 °C | < 4.30 | – | – | – | – | – | – |
| CC(=O)Nc1ccc(CN/C=C2\C(=O)NC(=O)c3ccc(Br)cc32)cc1O [Example 142, N-[4-({[(Z)-(6-Bromo-1,3-dioxo-2,3-dihydroisoquinolin-4(1H)-′ylidene)methyl]amino}methyl)-2-hydroxyphenyl]acetamide] | 5.92 | 5.70 | 7.70 | < 4.30 | 4.51 | 252 to 253 °C | 6.18 | – | – | – | – | – | – |
| CC1CN(c2ccc(N/C=C3\C(=O)NC(=O)c4ccc([N+](=O)[O-])cc43)cc2)CC(C)N1 (stereo not shown) [Example 235, (4Z)-4-({[4-(3,5-Dimethylpiperazin-1-yl)phenyl]amino}methylene)-6-nitroisoquinoline-1,3(2H,4H)-dione] | 5.85 | 5.46 | 4.76 | 4.60 | 5.48 | > 300 °C | 5.52 | – | – | – | – | – | – |
| CN1CCN(c2ccc3c(c2)/C(=C/Nc2ccc(CN4CCCCC4)cc2)C(=O)NC3=O)CC1 [Example 123] | 5.47 | 5.36 | 4.46 | < 4.30 | 5.14 | 192 to 193 °C | 5.03 | – | – | – | – | – | – |
| O=C1NC(=O)c2ccc(C3CCCC3)cc2/C1=C/NCc1cc(O)c(-c2ccoc2)cn1 [Example 537] | – | – | – | – | – | 279 to 283 °C (dec.) | – | – | 5.89 | 6.09 | 6.52 | 6.08 | 6.89 |
| CC(C)(C)c1ccc2c(c1)/C(=C/NCc1cc(O)c(-c3ccoc3)cn1)C(=O)NC2=O [Example 532, 6-tert-Butyl-4-{[(5-furan-3-yl-4-hydroxy-pyridin-2-ylmethyl)-amino]-methylene}-4H-isoquinoline-1,3-dione] | – | – | – | – | – | 215 to 230 °C (dec.) | – | – | 5.72 | 6.32 | 6.57 | 5.85 | 7.00 |
| O=C1NC(=O)c2ccc(-c3cccnc3)cc2/C1=C/Nc1ccc(CN2CCCCC2)cc1 [Example 102] | 4.94 | 4.36 | 6.89 | < 4.30 | < 4.30 | 247 to 248 °C | < 4.30 | – | – | – | – | – | – |
| CC(=O)Oc1ccc(CN/C=C2\C(=O)NC(=O)c3ccccc32)cc1OC(C)=O [Example 47, 2-(Acetyloxy)-4-({[(Z)-(1,3-dioxo-2,3-dihydroisoquinolin-4(1H)-ylidene)methyl]amino}-methyl)phenyl acetate] | 4.68 | 4.66 | 5.96 | < 4.30 | 4.70 | 184 to 186 °C | – | – | – | – | – | – | – |
| O=C1NC(=O)c2ccc(-c3ccc(F)cc3)cc2/C1=C/Nc1ccc(CN2CCCCC2)cc1 [Example 251, (4Z)-6-(4-Fluorophenyl)-4-({[4-(piperidin-1-′ylmethyl)phenyl]amino}methylene)isoquinoline-1,3(2H,4H)-dione] | 6.00 | 5.77 | 6.51 | < 4.30 | 6.26 | 195 to 196 °C | 5.96 | – | – | – | – | – | – |
| COc1ccc2c(c1)C(=CNc1ccc(CN3CCCCC3)cc1)C(=O)NC2=O [Example 91, 6-Methoxy-4-[(4-piperidin-1-ylmethyl-phenylamino)-methylene]-4H-isoquinoline-1,3-dione] | 4.57 | 4.43 | 5.70 | < 4.30 | 4.80 | 272 to 275 °C (dec.) | 4.40 | – | – | – | – | – | – |
| CN(C)C(=O)c1ccc2c(c1)/C(=C/Nc1ccc(CN3CCCCC3)cc1)C(=O)NC2=O [Example 66, (4Z)-N,N-Dimethyl-1,3-dioxo-4-({[4-(piperidinylmethyl)phenyl]amino}methylene)-1,2,3,4-tetrahydroisoquinoline-6-carboxamide] | 5.47 | 5.38 | 4.67 | < 4.30 | 5.37 | 266 to 267 °C (dec.) | 5.51 | – | – | – | – | – | – |
| CC(=O)Nc1ccc2c(c1)/C(=C/Nc1ccc(CN3CCCCC3)cc1)C(=O)NC2=O [Example 48] | – | – | – | < 4.30 | – | > 320 °C | – | 5.09 | – | – | – | – | – |
| O=C1NC(=O)c2ccc(-c3ccoc3)cc2/C1=C/Nc1ccc(CN2CCCCC2)cc1 [Example 93] | – | 5.74 | 7.43 | < 4.30 | – | 204 to 205 °C | 6.00 | – | – | – | – | – | – |
| O=C1NC(=O)c2ccc(-c3cccc(O)c3)cc2/C1=C/Nc1ccc(CN2CCCCC2)cc1 [Example 96] | 5.89 | 5.74 | 7.57 | < 4.30 | 5.70 | 235 to 236 °C | 5.47 | – | – | – | – | – | – |
| COc1ccc(CN/C=C2\C(=O)NC(=O)c3ccc(F)cc32)cc1O [Example 68] | 4.82 | 4.72 | 6.77 | < 4.30 | < 4.30 | 200 to 201 °C | 4.85 | – | – | – | – | – | – |
